The source of these data is ChEMBL document CHEMBL3217636, “Design, synthesis and biological evaluation of novel benzothiazole and triazole analogs as falcipain inhibitors” (Medchemcomm, 2011).

Assay [1] can be described thus: Inhibition of Plasmodium falciparum recombinant falcipain 2.
A further assay deals with Procathepsin L (Homo sapiens, UniProt P07711). Put plainly: Inhibition of human cathepsin L1.
The subject of assay [2] is Plasmodium falciparum. Briefly: Antimalarial activity against Plasmodium falciparum W2. The class given is functional, organism-based.
The next assay addresses T1, Cathepsin K (Homo sapiens, UniProt P43235).
T1 sequence (P43235 whole entry): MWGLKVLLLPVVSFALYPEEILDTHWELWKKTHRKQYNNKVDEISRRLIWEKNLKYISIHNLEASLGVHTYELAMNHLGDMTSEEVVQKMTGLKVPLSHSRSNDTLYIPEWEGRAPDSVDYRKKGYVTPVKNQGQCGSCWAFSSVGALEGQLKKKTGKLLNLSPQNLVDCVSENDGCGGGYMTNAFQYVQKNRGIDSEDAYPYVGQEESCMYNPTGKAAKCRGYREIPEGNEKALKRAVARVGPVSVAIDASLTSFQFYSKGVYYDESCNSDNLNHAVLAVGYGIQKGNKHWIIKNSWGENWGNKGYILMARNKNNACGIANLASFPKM
Briefly: Inhibition of human cathepsin K.

A further assay addresses Cathepsin B (Homo sapiens, UniProt P07858). Briefly: Inhibition of human cathepsin B.
Assay [3] is described as follows: Inhibition of Plasmodium falciparum recombinant falcipain 3.
Assay [4] relates to Plasmodium falciparum. Put plainly: Antimalarial activity against Plasmodium falciparum W2 at 10 uM. The class given is functional, organism-based.

Activity calls are given as the source filed them. The calls are words filed in the database; no cut-off is given here. Bounds are passed on as bounds.

Procathepsin L, sequence (P07711 whole entry): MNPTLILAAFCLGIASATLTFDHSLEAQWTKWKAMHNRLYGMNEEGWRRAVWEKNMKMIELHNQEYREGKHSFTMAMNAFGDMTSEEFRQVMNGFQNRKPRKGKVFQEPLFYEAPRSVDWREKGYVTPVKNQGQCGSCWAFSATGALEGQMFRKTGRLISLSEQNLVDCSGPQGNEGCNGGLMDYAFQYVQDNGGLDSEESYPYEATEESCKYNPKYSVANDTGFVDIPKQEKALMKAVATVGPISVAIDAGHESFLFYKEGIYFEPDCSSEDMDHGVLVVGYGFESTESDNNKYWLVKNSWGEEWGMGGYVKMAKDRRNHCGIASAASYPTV

As a reminder, the IC50 is the concentration needed to halve the response being measured. Regarding `Cc1ccc(NC(=O)CSc2nc3ccc(NC(=O)[C@H](N)c4ccccc4)cc3s2)cc1`, the IC50 in assay [1] was more than 50 µM.
Same read-out and setting: under `Cc1cccc(-c2cn(CC(=O)Nc3cc(C)on3)nn2)c1` stands more than 50 µM.
For `CC(C)[C@@H](N)C(=O)Nc1ccc2nc(SCC(=O)c3ccc4ccccc4c3)sc2c1`, the 50% inhibitory concentration (IC50) against Procathepsin L was 5.87 µM; with Plasmodium falciparum [2] it was 4.65 µM; against Cathepsin K, 14.5 µM; in assay [1], 12.2 µM; against Cathepsin B, more than 50 µM; in assay [3], 13.8 µM.
Regarding `CCOC(=O)CSc1nc2ccc(NS(=O)(=O)c3ccc4ccncc4c3)cc2s1`, in assay [1], the IC50 was found to be 31.3 µM.
Still for that read-out and setting: under `O=C(CSc1nc2ccc(NS(=O)(=O)c3ccc(F)cc3)cc2s1)c1ccc2ccccc2c1` stands 43.2 µM.
Still for that read-out and setting: under `Cc1cc(NC(=O)Cn2cc(-c3ccccc3)nn2)no1` stands more than 50 µM; under `Cc1ccc(NC(=O)CSc2nc3ccc(NS(=O)(=O)c4ccc(F)cc4)cc3s2)cc1`, 16.5 µM.
Regarding `Cc1cc(NC(=O)Cn2cc(-c3cccc(O)c3)nn2)no1`, in assay [1], the IC50 was more than 50 µM.
Consider `Cc1cc(NC(=O)Cn2cc(COc3ccccc3)nn2)no1`, for which, in assay [1], the IC50 is more than 50 µM.
The same measure, in the same setting: under `CCOC(=O)CSc1nc2ccc(NS(=O)(=O)c3ccccc3[N+](=O)[O-])cc2s1` stands more than 50 µM; under `Cc1ccc(NC(=O)CSc2nc3ccc(NS(=O)(=O)CC(F)(F)F)cc3s2)cc1`, 24.3 µM.
Regarding `COc1ccc(C(=O)Nc2ccc3nc(SCC(=O)c4ccccc4)sc3c2)cc1`, the IC50 against Procathepsin L was 31.6 µM; with Plasmodium falciparum [2] it was more than 10 µM; against Cathepsin K, 6.12 µM; in assay [1], 10.3 µM; at Cathepsin B, 17.7 µM; in assay [3], more than 50 µM.
As for `CC(C)C[C@H](NC(=O)[C@H]1O[C@@H]1C(=O)O)C(=O)NCCCCN=C(N)N` [E-64], the IC50 against Procathepsin L is 0.016 µM; against Cathepsin K it was 0.004 µM; in assay [1], 0.03 µM; on Cathepsin B it was 0.005 µM.
Take `N[C@@H](C(=O)Nc1ccc2nc(SCC(=O)c3ccc4ccccc4c3)sc2c1)c1ccccc1`: the IC50 against Procathepsin L is 4.39 µM; against Cathepsin K it was 5.62 µM; in assay [1] it was 12.8 µM; against Cathepsin B, more than 50 µM; in assay [3], 14.9 µM. In addition, the outcome with Plasmodium falciparum [4] was inactive.
Consider `CC(=O)Nc1ccc2nc(SCC(=O)Nc3ccc(C)cc3)sc2c1`, for which the 50% inhibitory concentration (IC50) in assay [1] worked out at 13.9 µM.
Same read-out and setting: for `Cc1ccc(NC(=O)CSc2nc3ccc(NS(=O)(=O)c4ccc5ccncc5c4)cc3s2)cc1` the value was 14 µM; for `Cc1cc(NC(=O)Cn2cc(-c3ccc(C=O)cc3)nn2)no1`, more than 50 µM.
On to `O=C(CSc1nc2ccc(NS(=O)(=O)c3ccc4ccncc4c3)cc2s1)c1ccc2ccccc2c1`, for which the IC50 with Plasmodium falciparum [2] was 2.08 µM; in assay [1], more than 50 µM.
With `Cc1cc(NC(=O)Cn2nnc(-c3ccc(NC(=O)c4ccc(F)cc4)cc3)n2)no1`, the half-inhibitory concentration (IC50) on Procathepsin L is 24.4 µM; in the assay with Plasmodium falciparum [2], more than 10 µM; on Cathepsin K it was 3.83 µM; in assay [1], 2.2 µM; at Cathepsin B it was 37.1 µM; in assay [3], 4.95 µM.
For `Cc1cc(NC(=O)Cn2cc(-c3cccc4ccccc34)nn2)no1`, in assay [1], the IC50 is more than 50 µM.
The same measure, in the same setting: for `Cc1ccc(NC(=O)CSc2nc3ccc(NS(=O)(=O)c4ccc(OC(F)(F)F)cc4)cc3s2)cc1` the value was 16.9 µM; for `O=C(CSc1nc2ccc(NS(=O)(=O)c3ccc(OC(F)(F)F)cc3)cc2s1)c1ccccc1`, 35.7 µM; for `CCOC(=O)CSc1nc2ccc(NS(=O)(=O)CC(F)(F)F)cc2s1`, more than 50 µM.
Same read-out and setting: under `CC(=O)Nc1ccc2nc(SCC(=O)c3ccc4ccccc4c3)sc2c1` stands 13.2 µM; under `O=C(CSc1nc2ccc(NS(=O)(=O)c3ccccc3[N+](=O)[O-])cc2s1)c1ccccc1`, 11.1 µM; under `COc1ccc2cc(-c3cn(CC(=O)Nc4cc(C)on4)nn3)ccc2c1`, 38.4 µM.
Regarding `Cc1cc(NC(=O)Cn2cc(-c3ccc(F)cc3)nn2)no1`, in assay [1], the half-maximal inhibitory concentration (IC50) was more than 50 µM.
On the same count and under the same terms, for `O=C(CSc1nc2ccc(NS(=O)(=O)c3ccc(OC(F)(F)F)cc3)cc2s1)c1ccc2ccccc2c1` the value was more than 50 µM; for `CCCCCc1ccc(-c2cn(CC(=O)Nc3cc(C)on3)nn2)cc1`, 39 µM.
As for `Cc1cc(NC(=O)Cn2cc(-c3ccc(Oc4ccccc4)cc3)nn2)no1`, the concentration for half-maximal inhibition (IC50) was 19.9 µM in assay [1] and 39.7 µM in assay [3].
For the compound `CCOC(=O)CSc1nc2ccc(NS(=O)(=O)c3ccc(F)cc3)cc2s1`, the concentration for half-maximal inhibition (IC50) in assay [1] is more than 50 µM.
Still for that read-out and setting: under `Cc1ccc(NC(=O)CSc2nc3ccc(NC(=O)[C@H](N)C(C)C)cc3s2)cc1` stands more than 50 µM; under `Nc1ccc2nc(SCC(=O)c3ccccc3)sc2c1`, more than 50 µM; under `Nc1ccc2nc(SCC(=O)c3ccc4ccccc4c3)sc2c1`, more than 50 µM.
On to `Cc1ccc(NC(=O)CSc2nc3ccc(N)cc3s2)cc1`, for which the 50% inhibitory concentration (IC50) in assay [1] is more than 50 µM.
Still for that read-out and setting: under `Cc1cc(NC(=O)Cn2cc(CCCCl)nn2)no1` stands more than 50 µM; under `CCOC(=O)CSc1nc2ccc(N)cc2s1`, more than 50 µM.
`C[C@@H]1CC[C@H]2[C@@H](C)C(=O)O[C@@H]3O[C@@]4(C)CC[C@@H]1[C@]32OO4` [ARTEMISININ]: the 50% inhibitory concentration (IC50) with Plasmodium falciparum [2] amounted to 0.012 µM.
In the case of `Cc1cc(NC(=O)Cn2cc(-c3cccnc3)nn2)no1`, in assay [1], the IC50 is more than 50 µM.
